Measurements as given in publication PMC3772838, “Preclinical Development of a Novel Class of CXCR4 Antagonist Impairing Solid Tumors Growth and Metastases” (PLoS ONE, 2013).
Like-named read-outs stand apart in the source and are kept apart here. Bridges are numbered along the chain shown (N, C = ends). Where no end group is shown, it is not given here.

Tests used:
CXCR3 = test: Anti-CXCR3 antibody (clone 1C6/CXCR3) binding in CXCR3 overexpressing cells; set-up: species or system human; conditions: COLO205 cells; peptides 10 µM, CXCL11 100 nM, 30 min pre-incubation; Figure S3
Method: [The procedure below names another target; the source says it served here with some conditions changed.] CXCR4 binding was evaluated as previously described. Briefly 5×10^5 CCRF–CEM cells were pre-incubated with 10 µM peptides or AMD3100 in binding buffer (PBS 1× plus 0.2% BSA and 0.1% NaN3) for 30 minutes at 37°C, 5% CO2 and then labeled for 30 minutes with anti-CXCR4 PE-antibody (FAB170P, clone 12G5, R&D Systems, Minneapolis, MN, USA). The cells were analyzed by FACS Canto II cytofluorometer (Becton Dickinson Immunocytometry Systems, Mountain View, CA, USA).
Fluo-3AM and Pluronic acid were added to each sample to increase Fluo-3AM solubility and improve dye loading into the cells. (TIF) Click here for additional data file.

P-ERK1/2 = test: CXCL12-induced p-ERK induction (immunoblotting); type: cell-based, human; conditions: PES43 cells serum-starved, CXCL12 100 ng/ml, after 5 minutes
Method: Cells were homogenized in lysis buffer (40 mM Hepes pH 7,5, 120 mM NaCl, 5 mM MgCl2, 1 mM EGTA, 0,5 mM EDTA, 1% Triton X-100) containing protease (Complete Tablets- EDTA-free, Roche) and phosphatase inhibitors (20 mM α-glycerol-3-phosphate, 2,5 mM Na-pyrophosphate). The following primary antibodies were used: anti-p-ERK (sc7383, Santa Cruz Biotechnology, Inc., Santa Cruz, CA, USA) and anti-ERK2 (sc 154G, Santa Cruz Biotechnology CA, USA). P-Erk induction was plotted as ratio P-Erk in the presence of CXCL12 (100 ng/ml)/P-Erk in serum free.
Experiments were conducted using PES43 cells. (A) Migration was assayed in 24-well Transwell chambers using inserts with 8-µm pore membrane. […] Migrated cells on the lower surface were fixed, stained with H&E and counted microscopically. The results are expressed as the migration index relative to migration in presence of BSA alone. […] Images were acquired with OKO Time Lapse. […] PES43 cells were serum-starved and incubated with CXCL12 (100 ng/ml) alone or in presence of AMD3100/peptides. Each peptide was tested in at least three different experiments. Double tailed T-Test was used for statistical analyses. Differences were considered significant at P<0.05 compared to control.
PES43 cell lines were serum starved for 16 hours. […] (TIF) Click here for additional data file.

[1] = tested on: human cancer cell lines (SN12C, RXF393, A498 and PES43); test: Cytotoxicity on human cancer cell lines; type: cell-based
[2] = tested on: K7M2 murine osteosarcoma cells; test: K7M2 osteosarcoma lung metastases model; type: in vivo, Balb/c mice; conditions: cells pre-treated 30 min with 10 µM peptide; 10 mg/kg IP daily for 15 days
Method: (§1) All mice were obtained from Harlan (Bar Harbor, ME, USA) and their care was in accord with institutional guidelines. Twenty-five 6-8-week-old female C57BL/6 mice were inoculated into the tail vein with 5×10^5 B16–CXCR4 cells pre-treated for 30 minutes with peptide S (10 µM), peptide R (10 µM), peptide I (10 µM), or AMD3100 (10 µM). Six hours later intraperitoneal (IP) treatment started with AMD3100 (1.25 mg/kg) or each peptide (2 mg/kg) in sterile PBS once a day for 10 days. A week later the mice were sacrificed. The experiment was repeated three times. The lung metastases assay was also conducted with K7M2 murine osteosarcoma cells. Twenty-five 6-8-week-old female Balb/c mice were injected via tail vein with 2.5×10^5 K7M2 cells pre-treated for 30 minutes with AMD3100 (10 µM), peptide S (10 µM), peptide R (10 µM), peptide I (10 µM) and animals were treated IP daily for 15 days with 2.5 mg/kg for AMD3100 group and 10 mg/kg for each peptide groups. A week later the mice were sacrificed. Xenograft tumor growth was evaluated using pEGFP-SN12C cells in exponential growth phase subcutaneously injected into the right flank of twenty-five 6-8-week-old female CD1 nude mice. 2×10^6 SN12C-pEGFP were injected in the right flank of each mouse and treated with AMD3100 (1.25 mg/kg) and peptides (2 mg/kg) for 10 days ip. A week later mice were euthanized and tumor volume evaluated through Leica MacroFluo fluorescence stereomicroscope (Leica microsystem, Houston, TX). The experiment was repeated three times. The Istituto Nazionale per lo Studio e la Cura dei Tumori, Fondazione Giovanni Pascale Independent Etical Comettee approved the study (CEI/600/12).
Figure 4 Peptides R, I and S inhibit murine osteosarcoma lung metastases. (A) Twenty-five 6-8-week-old female Balb/c mice were injected via tail vein with 2.5×10^5 K7M2 cells pre-treated for 30 minutes with AMD3100 (10 µM), peptide R (10 µM), or peptide I (10 µM) or peptide S (10 µM). […]

[3] = tested on: SN12C-EGFP renal cancer cells; test: SN12C-pEGFP subcutaneous xenograft tumor growth; type: in vivo, CD1 nude mice; conditions: IP 10 days, peptides 2 mg/kg, AMD3100 1.25 mg/kg; measured a week later by fluorescence stereomicroscope; control 65.97±35.1; average
Method: as §1
6 to 8-week-old female CD1 nude mice were injected subcutaneously with 2×10^6 pEGFP-SN12C cells pre-treated with 10 µM AMD3100 or 10 µM of each peptide. Beginning the following day mice were further treated intraperitoneally for 10 days with 1.25 mg/kg AMD3100 or 2 mg/kg of peptides R, I or S. A week later mice were euthanized and tumor volume evaluated directly from the flank of mice using a Leica MacroFluo fluorescence stereomicroscope (Leica microsystem, Houston, TX) (A). The experiments were repeated three times. B. SN12C-PEGFP cells migration toward CXCL12 in the presence of AMD3100 or Peptide R, S and I.

[4] = tested on: SN12C-GFP human renal cancer cells; test: CXCL12-induced SN12C-GFP migration; type: cell-based; conditions: Figure 5
Method: Migration was assayed in 24-well Transwell chambers (Corning Inc., Corning, NY) using inserts with an 8-µm pore membrane. Membranes were precoated with collagen (human collagen type I/III) and fibronectin (20 µg/mL each). […] After 16 h incubation, cells on the upper surface of the filter were removed using a cotton wool swab; migration of cells in migration media alone was compared with migration in media containing CXCL12. The cells were counted in ten different fields (original magnification ×40). The migration index was defined as the ratio between migrating cells in the experimental group and migrated cells in the control group. For the wound closure assay, tested cells were allowed to reach confluence in six-well plates containing serum-depleted growth medium and scratched with pipette tips to make wounds. The wound closure was observed microscopically 6 hours post-wounding (OKO Time Lapse).
6 to 8-week-old female CD1 nude mice were injected subcutaneously with 2×10^6 pEGFP-SN12C cells pre-treated with 10 µM AMD3100 or 10 µM of each peptide. […] The experiments were repeated three times.

## [Cys-Trp-His-Arg-Cys] (CWHRC; disulfide 1-5) [Peptide I, v-MIP-II mimetic disulfide-cyclic peptide]
CXCR3
  binding to CXCR3 (anti-CXCR3 antibody): unaffected
P-ERK1/2
  CXCL12-mediated p-ERK induction: reduced
[1]; SN12C, RXF393, A498 and PES43, Figure S2
  cytotoxicity: no toxicity
[2]
  K7M2 lung metastases: reduced lung metastases
[3]
  tumor volume of SN12C-GFP xenograft: 39.19±25.8 mm^3
[4]
  CXCL12-induced SN12C-GFP migration: inhibited

## Arg-Ala-[Cys-Arg-Phe-Phe-Cys] (RACRFFC; disulfide 3-7) [Peptide R, CXCL12-mimetic disulfide-cyclic peptide]
CXCR3
  binding to CXCR3 (anti-CXCR3 antibody): unaffected
P-ERK1/2
  CXCL12-mediated p-ERK induction: reduced
[1]
  cytotoxicity: no toxicity
[2]
  K7M2 lung metastases: reduced lung metastases
[3]
  tumor volume of SN12C-GFP xenograft: 47.00±16.88 mm^3
[4]
  CXCL12-induced SN12C-GFP migration: inhibited

## Arg-Ala-[Cys-Arg-His-Trp-Cys] (RACRHWC; disulfide 3-7) [Peptide S, CXCL12-mimetic disulfide-cyclic peptide]
CXCR3
  binding to CXCR3 (anti-CXCR3 antibody): unaffected
P-ERK1/2
  CXCL12-mediated p-ERK induction: reduced
[1]
  cytotoxicity: no toxicity
[2]
  K7M2 lung metastases: reduced lung metastases
[3]
  tumor volume of SN12C-GFP xenograft: 44.51±26.4 mm^3
[4]
  CXCL12-induced SN12C-GFP migration: inhibited
